Results taken from patent publication US6376670B1, “Quinoline-indole antimicrobial agents, uses and compositions related thereto” (Sepracor Inc., priority 1997, dated 2002).
Read-outs that look alike come from different tables or passages of the source.

Tests used:
Experiment in all cases: Determination of MIC values (BHI broth, 96 well microtiter plate)
Format in all cases: cell-based
Streptococcus pneumoniae = settings: Streptococcus pneumoniae, BHI broth, read-out: MIC S. pneu
In short: (§1)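 BHI broth microdilution; final compound 25, 12.5, 6.25, 3.125, 1.56, 0.78, 0.39, 0 µg/mL (1% DMSO). Inoculum 10^5–10^6 cells/mL; 37° C, ~7-10% CO2, ~16 h. MIC = lowest concentration, no observable growth.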

[1] = tested on: methicillin-resistant Staphylococcus aureus (MRSA); settings: MRSA, BHI broth; for MIC: Staphylococcus aureus, read-out: MIC MRSA
In short: as §1

[2] = tested on: vancomycin-resistant Enterococcus spp. (VRE); settings: Enterococcus, VRE, BHI broth, read-out: MIC VREF
In short: as §1

[3] = 37° C., overnight (about 16 hours)
[4] = 16 h, 37° C., overnight (about 16 hours)

| MIC (Streptococcus pneumoniae; [3]) [µg/mL] | MIC [1, 4] [µg/mL] | MIC [2, 4] [µg/mL] | MIC (Streptococcus pneumoniae; S. pneu, overnight 37° C.) [µg/mL] | MIC MRSA ([1]; overnight 37° C.) [µg/mL] | MIC ([2]; VREF, overnight 37° C.) [µg/mL] | MIC ([1]; overnight 37° C.) [µg/mL] | Compound |
| --- | --- | --- | --- | --- | --- | --- | --- |
| < 7 | > 25 | > 25 |  |  |  |  | c1ccc(COc2ccc3[nH]cc(-c4ccc5ccccc5n4)c3c2)cc1 [Example 184] |
| < 7 | < 7 | < 25 |  |  |  |  | Fc1ccc2[nH]cc(-c3ccc4cc(Cl)ccc4n3)c2c1 [Example 191] |
| < 7 | < 7 | > 25 |  |  |  |  | Clc1ccc2nc(-c3c[nH]c4ccc(OCc5ccccc5)cc34)ccc2c1 [Example 194] |
| > 25 | > 25 | > 25 |  |  |  |  | COc1ccc2[nH]cc(-c3ccc4cc(Cl)ccc4n3)c2c1 [Example 195] |
| < 25 | < 7 | > 25 |  |  |  |  | O=[N+]([O-])c1ccc2[nH]cc(-c3ccc4cc(Cl)ccc4n3)c2c1 [Example 196] |
| > 25 | > 25 | > 25 |  |  |  |  | Cc1cccc2c(-c3ccc4cc(Cl)ccc4n3)c[nH]c12 [Example 199] |
|  |  |  | > 25 | < 7 | > 25 |  | N#Cc1ccc2[nH]cc(-c3ccc4cc(Cl)ccc4n3)c2c1 [Example 200] |
|  |  |  | < 7 |  | < 25 | < 7 | Clc1ccc2nc(-c3c[nH]c4cccc(Cl)c34)ccc2c1 [Example 201] |
|  |  |  | < 7 |  | > 25 | < 7 | Clc1ccc2nc(-c3c[nH]c4cc(Cl)ccc34)ccc2c1 [Example 202] |
|  |  |  | < 7 |  | < 25 | < 7 | CC(=O)Oc1cccc2[nH]cc(-c3ccc4cc(Cl)ccc4n3)c12 [Example 204] |
|  |  |  | < 25 |  | < 25 | < 7 | NCc1ccc(CNC(=O)c2cc(-c3c[nH]c4ccc(Br)cc34)nc3ccc(C#CCN4CCNCC4)cc23)cc1 [Example 208] |
|  |  |  | < 7 |  | < 7 | < 7 | NCc1ccc(CNC(=O)c2cc(-c3c[nH]c4ccc(Br)cc34)nc3cc(Cl)cc(Cl)c23)cc1 [Example 209] |
|  |  |  | > 25 |  | > 25 | < 25 | Cn1cc(-c2ccc3cc(Cl)ccc3n2)c2c(F)cccc21 [Example 211] |
|  |  |  | < 7 |  | < 25 | < 25 | Cc1cccc2c(-c3ccc4cc(Cl)ccc4n3)cn(C)c12 [Example 217] |
|  |  |  | > 25 |  | > 25 | < 7 | Cn1cc(-c2ccc3cc(Cl)ccc3n2)c2cc(C#N)ccc21 [Example 218] |
|  |  |  | < 25 |  | > 25 | > 25 | Cn1cc(-c2ccc3cc(Cl)ccc3n2)c2ccc(Cl)cc21 [Example 219] |
|  |  |  | < 7 |  | < 7 | < 7 | Cn1cc(-c2ccc3cc(Cl)ccc3n2)c2cc(O)ccc21 [Example 221] |
|  |  |  | < 7 |  | < 7 | < 7 | NCc1ccc(CNC(=O)c2cc(-c3c[nH]c4ccc(Br)cc34)nc3ccc(C#CCNCCc4ccccc4)cc23)cc1 [Example 223] |
|  |  |  | < 7 |  | < 7 | < 7 | NCc1ccc(CNC(=O)c2cc(-c3c[nH]c4ccc(Cl)cc34)nc3ccc(I)cc23)cc1 [Example 224] |
|  |  |  | < 7 |  | < 7 | < 7 | Cn1cc(-c2cc(C(=O)NCc3cccc(CN)c3)c3cc(I)ccc3n2)c2cc(Cl)ccc21 [Example 225] |
|  |  |  | < 7 |  | < 25 | < 25 | NCC1CCC(CNC(=O)c2cc(-c3c[nH]c4ccc(Cl)cc34)nc3ccc(I)cc23)CC1 (stereo not drawn) [Example 226] |
|  |  |  | < 7 |  | < 7 | < 7 | Cn1cc(-c2cc(C(=O)NCc3cccc(CN)c3)c3ccccc3n2)c2cc(Br)ccc21 [Example 227] |
|  |  |  | > 25 |  | > 25 | > 25 | NCc1ccc(CNC(=O)c2cc(-c3c[nH]c4ccc(Br)cc34)nc3ccc(/C=C/c4ccccc4)cc23)cc1 [Example 228] |
|  |  |  | < 7 |  | < 7 | < 7 | NCc1ccc(CNC(=O)c2cc(-c3c[nH]c4ccc(Cl)cc34)nc3ccc(Br)cc23)cc1 [Example 229] |
|  |  |  | < 7 |  | < 7 | < 7 | NCc1ccc(CNC(=O)c2cc(-c3c[nH]c4ccc(Cl)cc34)nc3cc(Br)ccc23)cc1 [Example 230] |
|  |  |  | < 7 |  | < 7 | < 7 | NCc1ccc(CNC(=O)c2cc(-c3c[nH]c4ccc(Cl)cc34)nc3c(Br)cccc23)cc1 [Example 231] |

| MIC (Streptococcus pneumoniae; [3]) [µg/mL] | MIC [1, 4] [µg/mL] | MIC [2, 4] [µg/mL] | MIC (Streptococcus pneumoniae; S. pneu, overnight 37° C.) [µg/mL] | MIC MRSA ([1]; overnight 37° C.) [µg/mL] | MIC ([2]; VREF, overnight 37° C.) [µg/mL] | MIC ([1]; overnight 37° C.) [µg/mL] | Compound |
| --- | --- | --- | --- | --- | --- | --- | --- |
|  |  |  | < 7 |  | < 7 | < 7 | Cn1cc(-c2ccc3cc(Cl)ccc3n2)c2cc([N+](=O)[O-])ccc21 [Example 232] |
|  |  |  | < 25 |  | < 25 | > 25 | O=C(O)c1cc(-c2c[nH]c3ccc(Br)cc23)nc2ccc(C#CCNC3CCCCC3)cc12 [Example 233] |
|  |  |  | > 25 |  | > 25 | > 25 | O=C(O)c1cc(-c2c[nH]c3ccc(Br)cc23)nc2ccc(C#CCN3CCCC3)cc12 [Example 234] |
|  |  |  | < 7 |  | < 7 | < 7 | NCc1ccc(CNC(=O)c2cc(-c3c[nH]c4ccc(Br)cc34)nc3ccc(C#CCNCCc4ccc(Cl)cc4)cc23)cc1 [Example 235] |
|  |  |  | < 7 |  | < 7 | < 7 | NCc1ccc(CNC(=O)c2cc(-c3c[nH]c4ccc(Br)cc34)nc3ccc(C#CCNC4CCCCC4)cc23)cc1 [Example 236] |
|  |  |  | < 7 |  | < 25 | < 7 | NCc1ccc(CNC(=O)c2cc(-c3c[nH]c4ccc(Br)cc34)nc3ccc(C#CCN4CCCC4)cc23)cc1 [Example 238] |
|  |  |  | > 25 |  | < 7 | < 7 | NCc1ccc(CNC(=O)c2cc(-c3c[nH]c4ccc(Br)cc34)nc3ccc(C#CCN4CCSCC4)cc23)cc1 [Example 239] |
|  |  |  | > 25 |  | < 25 | < 7 | NCc1ccc(CNC(=O)c2cc(-c3c[nH]c4ccc(Br)cc34)nc3ccc(C#CCN4CCc5ccccc5C4)cc23)cc1 [Example 240] |
|  |  |  | < 7 |  | < 7 | < 7 | NCc1ccc(CNC(=O)c2cc(-c3c[nH]c4ccc(Br)cc34)nc3ccc(C#CCN4CC=CCC4)cc23)cc1 [Example 241] |
|  |  |  | < 7 |  | < 25 | < 7 | NCc1cccc(CNC(=O)c2cc(-c3c[nH]c4ccc(Br)cc34)nc3ccc(C#CCN4CCCC4)cc23)c1 [Example 242] |
|  |  |  | < 7 |  | < 7 | < 7 | NCc1cccc(CNC(=O)c2cc(-c3c[nH]c4ccc(Br)cc34)nc3cc(Cl)c(I)cc23)c1 [Example 243] |
|  |  |  | < 7 |  | < 7 | < 7 | NCC1CCC(CNC(=O)c2cc(-c3c[nH]c4ccc(Br)cc34)nc3cc(Cl)c(I)cc23)CC1 (stereo not drawn) [Example 244] |
|  |  |  | < 7 |  | < 7 | < 7 | NCC1CCCC(CNC(=O)c2cc(-c3c[nH]c4ccc(Br)cc34)nc3cc(Cl)c(I)cc23)C1 (stereo not drawn) [Example 245] |
|  |  |  | < 7 |  | < 7 | < 7 | NCc1cccc(CNC(=O)c2cc(-c3c[nH]c4ccc(Br)cc34)nc3cc(Cl)cc(Cl)c23)c1 [Example 246] |
|  |  |  | < 7 |  | < 7 | < 7 | NCC1CCC(CNC(=O)c2cc(-c3c[nH]c4ccc(Br)cc34)nc3cc(Cl)cc(Cl)c23)CC1 (stereo not drawn) [Example 247] |
|  |  |  | < 7 |  | < 7 | < 7 | NCC1CCCC(CNC(=O)c2cc(-c3c[nH]c4ccc(Br)cc34)nc3cc(Cl)cc(Cl)c23)C1 (stereo not drawn) [Example 248] |
|  |  |  | < 7 |  | < 7 | < 7 | NCc1ccc(CNC(=O)c2cc(-c3c[nH]c4ccc(Br)cc34)nc3cc(I)ccc23)cc1 [Example 249] |
|  |  |  | < 7 |  | < 7 | < 7 | NCC1CCCC(CNC(=O)c2cc(-c3c[nH]c4ccc(Br)cc34)nc3cc(I)ccc23)C1 (stereo not drawn) [Example 250] |
|  |  |  | < 7 |  | < 7 | < 7 | NCC1CCC(CNC(=O)c2cc(-c3c[nH]c4ccc(Br)cc34)nc3cc(I)ccc23)CC1 (stereo not drawn) [Example 251] |
|  |  |  | < 7 |  | < 7 | < 7 | NCc1cccc(CNC(=O)c2cc(-c3c[nH]c4ccc(Br)cc34)nc3cc(I)ccc23)c1 [Example 252] |
|  |  |  | < 7 |  | < 25 | < 7 | NCc1ccc(CNC(=O)c2cc(-c3c[nH]c4ccc(Br)cc34)nc3ccc(F)cc23)cc1 [Example 253] |
|  |  |  | < 7 |  | < 7 | < 7 | NCc1ccc(CNC(=O)c2cc(-c3c[nH]c4ccc(Br)cc34)nc3cc(F)ccc23)cc1 [Example 254] |
|  |  |  | < 7 |  | < 7 | < 7 | NCc1ccc(CNC(=O)c2cc(-c3c[nH]c4ccc(Br)cc34)nc3c(F)cccc23)cc1 [Example 256] |
|  |  |  | < 7 |  | < 7 | < 7 | NCc1cccc(CNC(=O)c2cc(-c3c[nH]c4ccc(Br)cc34)nc3c(F)cccc23)c1 [Example 257] |
|  |  |  | < 7 |  | < 7 | < 7 | NCC1CCC(CNC(=O)c2cc(-c3c[nH]c4ccc(Br)cc34)nc3c(F)cccc23)CC1 (stereo not drawn) [Example 258] |
|  |  |  | < 7 |  | < 7 | < 7 | NCC1CCCC(CNC(=O)c2cc(-c3c[nH]c4ccc(Br)cc34)nc3c(F)cccc23)C1 (stereo not drawn) [Example 259] |
